The source of these data is patent US20240368150A1 (Hoffmann-La Roche Inc., priority 2021, published 2024).

Each structure is given as a SMILES string. pEC50: −log10 of the molar value. Read-outs that look alike come from different tables or passages of the source.

The test system of test [1] is primary human T-cells. As to the kind of experiment: Proliferation assay after 5 days (CellTiter-Glo, CD3 stimulation; PBS counter screen). The class given is cell-based. Particulars: Homo sapiens, T-cell, 120 h, CD3 stimulation; for Emax: 5 days, normalized to reference compound A1 as stimulator control = 100%, DMSO neutral control, read-out: Emax proliferation (% activation); for pEC50: primary human T-cells, CellTiter-Glo after 5 days, EC50 of fitted sigmoidal curve, read-out: Tcell Proliferation CD3 EC50. Put shortly:
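Proliferation is measured 5 days post-treatment as ATP-dependent luminescence. Flags mark compounds that activated unstimulated cells or harmed viability.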
For orientation: ATP-based viability assays read luminescence as a measure of living cells.

The subject of test [2] is primary human T-cells.
Procedure: As readouts for T-cell activation, IL2 secretion after 24 hours and proliferation after 5 days was measured. Increases in IL2 secretion and proliferation upon compound treatment were assessed as the % of the maximum of reference compound A1. […] As a counter screen and to make sure that no unwanted TCR-independent activation was triggered, PBS conditions were run for all compounds.
For coating of plates, PBS++ with PBS−− or PBS++ with CD3 antibody (concentration depending on donor and determined by CD3 titrations) was added 100 μl/well to Poly-D Lysine coated 96-well plates. Plates were sealed and incubated at room temperature for 3 hours on a table-top rocking platform. After incubation, plates were washed once with PBS−− and filled with 40 μl/well culture medium only. Compounds were then added (see next section) to medium only plates. After 3 hours of culturing the T-cells, cells were filtered through a cell strainer (Miltenyi Biotech, #130-041-407), counted again and concentration was adjusted to 1.25 Mio/ml.
Cells were then seeded 80 μl/well to the 40 μl/well including dispensed compounds according to plate layout. By adding cells, compounds were further diluted 1:3, and resulting in 100 k cells/120 μl/well. After 24 hours 40 μl of supernatant was collected carefully from the top while not disturbing the cells and transferred into a round bottom 96 well plate. Collected and frozen supernatant was used for detection of IL2 using the IL-2 Human ProQuantum Immunoassay Kit (Invitrogen) or using the Human IL-2 ELISA Kit (Thermo Fisher).
Compounds were added in a 5 or 6pt dose response with the Tecan D300e Digital Dispenser, all conditions 3 times more concentrated than the end-concentration, since cells are added afterwards (80 μl cells to 40 μl prepared medium with treatment). The DR was starting at 20 μM or 10 μM final top concentration and a dilution factor of 3.333. The positive control was the reference compound A1 that was added in a dose response as well, additionally to 3 wells of only 20 μM representing the positive stimulator control. All wells were normalized with DMSO to a final concentration of 0.6% (0.2% end-concentration).
The immunoassay is done following the manufacturer's manual (Invitrogen, #A35603). Additional information: For the immunoassay, MicroAmp™ EnduraPlate™ Optical 384-Well plates are used. Frozen supernatant is thawed and centrifuged for 5 minutes at 1000×g, both steps at 4° C. After centrifugation, required sample amount is taken from the top, and in a separate LightCycler V-bottom plate (working plate) diluted with assay dilution buffer, dilution factor depending on the PBS or CD3 condition but at least 1:3. IL-2 standard and blanks are prepared in the same V-bottom plate, standard with a range of 0.0128-5000 pg/ml (extended version). After preparation, 5 μl of sample dilutions or standard/blanks are transferred to the optical 384-well plate (assay plate) and the 10 μl reaction protocol is being followed. For measurement, the QuantStudio 12K Flex system is used.
ELISA is done following the manufacturer's manual (Thermo Fisher Scientific, #88-7025-88). Additional information: For the ELISA Nunc MaxiSorp 96 well plates are used. Frozen supernatant is thawed and centrifuged for 5 minutes at 1000×g, both steps at 4° C. After that, required sample amount is taken from the top, and in a separate V-bottom plate diluted with ELISA diluent, dilution factor depending on the PBS or CD3 condition. IL-2 standard and blanks are prepared in the same V-bottom plate. After preparation, 50 μl of sample dilutions and 100 μl of standard or blanks are transferred to the Nunc plates.
CD3 and PBS plates were analysed separately in Genedata Screener using Roche Normalization PCT_POS_CTRL with DMSO set as Neutral Control and 20 μM of the reference compound A1 set as Stimulator Control/100%.
For CD3 conditions EC50 and Emax of the fitted sigmoidal curve were reported.

For `CC(C)(CN1CCS(=O)(=O)CC1)c1nnc(-c2cc3c(cc2F)S(=O)(=O)C[C@H](N)C(=O)N3Cc2ccc(Cl)cc2)o1` [Example 138, (3R)-3-amino-5-[(4-chlorophenyl)methyl]-7-[5-[2-(1,1-dioxo-1,4-thiazinan-4-yl)-1,1-dimethyl-ethyl]-1,3,4-oxadiazol-2-yl]-8-fluoro-1,1-dioxo-2,3-dihydro-1λ^6,5-benzothiazepin-4-one], in test [1], the Emax was found to be 120% and the pEC50 was 5.82. This compound gave a pEC50 in test [2] of 5.46.

For `CNC(=O)N1CCC(C)(c2nc(-c3cc4c(cc3F)S(=O)(=O)C[C@H](N)C(=O)N4Cc3ccc(Cl)cc3)no2)CC1` [Example 304, 4-[3-[(3R)-3-amino-5-[(4-chlorophenyl)methyl]-8-fluoro-1,1,4-trioxo-2,3-dihydro-1λ^6,5-benzothiazepin-7-yl]-1,2,4-oxadiazol-5-yl]-N,4-dimethyl-piperidine-1-carboxamide], in test [1], the Emax came out at 61% and the pEC50 was 5.13. The compound further had a pEC50 in test [2] of 5.09.

Turning to `CCOC(=O)N1CC2CC(c3nc(-c4cc5c(cc4F)S(=O)(=O)C[C@H](N)C(=O)N5Cc4ccc(Cl)cc4)no3)(C2)C1` [Example 315, ethyl 1-[3-[(3R)-3-amino-5-[(4-chlorophenyl)methyl]-8-fluoro-1,1,4-trioxo-2,3-dihydro-1λ^6,5-benzothiazepin-7-yl]-1,2,4-oxadiazol-5-yl]-3-azabicyclo[3.1.1]heptane-3-carboxylate], in test [1], the Emax came to 131%. The pEC50 in test [2] is 5.99.

`Cc1ccccc1-c1nnc(-c2cc3c(cc2F)S(=O)(=O)C[C@H](N)C(=O)N3Cc2ccc(Cl)cc2)o1` [Example 98, (3R)-3-amino-5-[(4-chlorophenyl)methyl]-8-fluoro-7-[5-(o-tolyl)-1,3,4-oxadiazol-2-yl]-1,1-dioxo-2,3-dihydro-1λ^6,5-benzothiazepin-4-one]: in test [1], the Emax came to 112% and the pEC50 was 7.19. The pEC50 in test [2] is 7.15.

For the compound `N[C@H]1CS(=O)(=O)c2cc(F)c(-c3nnc(C4CN(C5CC5)CC(F)(F)C4)o3)cc2N(Cc2ccc(Cl)cc2)C1=O` (stereo partly drawn) [Example 159, (3R)-3-amino-5-[(4-chlorophenyl)methyl]-7-[5-(1-cyclopropyl-5,5-difluoro-3-piperidyl)-1,3,4-oxadiazol-2-yl]-8-fluoro-1,1-dioxo-2,3-dihydro-1λ^6,5-benzothiazepin-4-one], in test [1], the Emax was 121% and the pEC50 was 6.74. For the same compound, the pEC50 in test [2] was 6.66.

On to `N[C@H]1CS(=O)(=O)c2cc(F)c(-c3nnc(C4CC(F)(F)C4)o3)cc2N(Cc2ccc(Cl)cc2)C1=O` [Example 80, (3R)-3-Amino-5-[(4-chlorophenyl)methyl]-7-[5-(3,3-difluorocyclobutyl)-1,3,4-oxadiazol-2-yl]-8-fluoro-1,1-dioxo-2,3-dihydro-1λ^6,5-benzothiazepin-4-one], for which, in test [1], the Emax came to 278% and the pEC50 was 7.09. In addition, the pEC50 in test [2] was 6.75.

Take `Cc1nc(F)ccc1-c1nc(-c2cc3c(cc2F)S(=O)(=O)C[C@H](N)C(=O)N3Cc2ccc(Cl)cc2)no1` [Example 312, (3R)-3-amino-5-[(4-chlorophenyl)methyl]-8-fluoro-7-[5-(6-fluoro-2-methyl-3-pyridyl)-1,2,4-oxadiazol-3-yl]-1,1-dioxo-2,3-dihydro-1λ^6,5-benzothiazepin-4-one]: in test [1], the Emax was found to be 163% and the pEC50 is 7.09. The pEC50 in test [2] was 6.65.

With `CC(=O)N1CCC(C)(c2nnc(-c3cc4c(cc3F)S(=O)(=O)C[C@H](N)C(=O)N4Cc3ccc(Cl)cc3)o2)CC1` [Example 169, (3R)-7-[5-(1-acetyl-4-methyl-4-piperidyl)-1,3,4-oxadiazol-2-yl]-3-amino-5-[(4-chlorophenyl)methyl]-8-fluoro-1,1-dioxo-2,3-dihydro-1λ^6,5-benzothiazepin-4-one], in test [1], the Emax was 95% and the pEC50 is 5.61. Moreover, the pEC50 in test [2] was 5.48.
